Source: ChEMBL document CHEMBL4725259 (Bioorg Med Chem, 2020)
Calls of active or inactive are those of the source. The calls are words filed in the database; no cut-off is given here.

How the values were obtained:
[1] = biological target: T1, Prolactin-releasing peptide receptor (Homo sapiens) (UniProt P49683); experiment: Agonist activity at human PRLHR expressed in CHO-K1 cells at 20 uM by PathHunter beta-arrestin assay relative to control; assay type: cell-based
T1 sequence (whole entry): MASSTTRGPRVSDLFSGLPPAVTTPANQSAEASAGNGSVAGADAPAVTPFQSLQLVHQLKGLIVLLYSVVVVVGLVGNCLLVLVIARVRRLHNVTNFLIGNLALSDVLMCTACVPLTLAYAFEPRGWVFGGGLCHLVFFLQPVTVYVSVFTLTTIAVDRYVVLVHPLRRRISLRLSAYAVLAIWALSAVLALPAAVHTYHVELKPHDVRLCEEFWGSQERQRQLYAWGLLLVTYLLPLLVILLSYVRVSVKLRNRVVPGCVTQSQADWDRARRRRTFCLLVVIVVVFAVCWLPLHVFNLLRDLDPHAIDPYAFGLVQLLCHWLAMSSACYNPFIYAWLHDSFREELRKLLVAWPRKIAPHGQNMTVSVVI

[2] = biological target: T2, Follicle-stimulating hormone receptor (Homo sapiens) (UniProt P23945); experiment: Antagonist activity at human FSHR expressed in CHO-K1 cells at 20 uM by PathHunter beta-arrestin assay relative to control; assay type: cell-based; conditions: filed as antagonist
T2 sequence (whole entry): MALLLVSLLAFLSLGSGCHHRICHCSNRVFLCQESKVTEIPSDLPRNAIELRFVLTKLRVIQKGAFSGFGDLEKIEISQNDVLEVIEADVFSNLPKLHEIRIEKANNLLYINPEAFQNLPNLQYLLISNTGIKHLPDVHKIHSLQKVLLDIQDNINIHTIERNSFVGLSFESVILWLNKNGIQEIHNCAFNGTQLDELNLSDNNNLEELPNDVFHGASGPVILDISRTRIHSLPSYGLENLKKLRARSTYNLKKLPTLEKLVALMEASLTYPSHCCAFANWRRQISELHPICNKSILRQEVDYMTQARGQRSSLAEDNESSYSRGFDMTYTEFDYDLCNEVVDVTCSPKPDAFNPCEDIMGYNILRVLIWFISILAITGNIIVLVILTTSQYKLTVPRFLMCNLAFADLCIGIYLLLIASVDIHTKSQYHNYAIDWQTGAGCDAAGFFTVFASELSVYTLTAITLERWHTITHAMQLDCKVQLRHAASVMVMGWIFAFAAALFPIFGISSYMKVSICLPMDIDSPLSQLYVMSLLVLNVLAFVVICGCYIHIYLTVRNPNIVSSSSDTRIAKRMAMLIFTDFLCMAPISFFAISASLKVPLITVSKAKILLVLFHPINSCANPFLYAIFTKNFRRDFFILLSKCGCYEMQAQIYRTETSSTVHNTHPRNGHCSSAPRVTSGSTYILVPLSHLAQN

Vasopressin V2 receptor [3] = biological target: T3, Vasopressin V2 receptor (Homo sapiens, UniProt P30518); experiment: Agonist activity at human AVPR2 at 20 uM by PathHunter beta-arrestin assay relative to control
[4] = biological target: C-X-C chemokine receptor type 4 (Homo sapiens, UniProt P61073); experiment: Agonist activity at human CXCR4 expressed in mouse C2C12 cells at 20 uM by PathHunter beta-arrestin assay relative to control; assay type: cell-based
U2OS [5] = experiment: Agonist activity at NPSR1B in human U2OS cells at 20 uM by PathHunter beta-arrestin assay relative to control; assay type: cell-based
[6] = biological target: T4, CX3C chemokine receptor 1 (Homo sapiens) (UniProt P49238); experiment: Agonist activity at human CX3CR1 expressed in CHO-K1 cells at 20 uM by PathHunter beta-arrestin assay relative to control; assay type: cell-based
T4 sequence (whole entry): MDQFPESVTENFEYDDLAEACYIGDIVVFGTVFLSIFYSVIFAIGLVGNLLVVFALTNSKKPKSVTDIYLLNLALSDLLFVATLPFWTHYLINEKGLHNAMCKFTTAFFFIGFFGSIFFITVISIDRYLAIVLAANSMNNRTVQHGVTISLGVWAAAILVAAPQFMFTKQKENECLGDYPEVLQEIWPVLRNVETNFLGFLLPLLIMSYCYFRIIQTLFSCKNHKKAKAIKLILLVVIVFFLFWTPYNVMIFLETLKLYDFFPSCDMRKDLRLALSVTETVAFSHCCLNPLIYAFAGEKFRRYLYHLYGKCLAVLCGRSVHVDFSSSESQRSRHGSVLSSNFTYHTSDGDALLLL

Vasopressin V2 receptor [7] = biological target: T3, Vasopressin V2 receptor; experiment: Antagonist activity at human AVPR2 at 20 uM by PathHunter beta-arrestin assay relative to control; conditions: filed as antagonist
[8] = biological target: T5, Oxytocin receptor (Homo sapiens) (UniProt P30559); experiment: Agonist activity at human OXTR expressed in CHO-K1 cells at 20 uM by PathHunter beta-arrestin assay relative to control; assay type: cell-based
T5 sequence (whole entry): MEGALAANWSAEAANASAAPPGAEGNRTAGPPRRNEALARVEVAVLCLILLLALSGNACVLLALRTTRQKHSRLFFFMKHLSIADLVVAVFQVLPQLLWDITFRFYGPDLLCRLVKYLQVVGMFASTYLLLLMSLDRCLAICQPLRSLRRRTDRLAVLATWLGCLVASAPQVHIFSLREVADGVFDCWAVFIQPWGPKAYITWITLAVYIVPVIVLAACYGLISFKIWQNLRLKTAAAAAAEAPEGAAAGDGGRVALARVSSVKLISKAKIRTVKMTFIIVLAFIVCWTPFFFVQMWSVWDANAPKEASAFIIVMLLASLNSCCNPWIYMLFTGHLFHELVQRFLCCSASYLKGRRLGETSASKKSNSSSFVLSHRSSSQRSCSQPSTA

U2OS [9] = experiment: Antagonist activity at NPSR1B in human U2OS cells at 20 uM by PathHunter beta-arrestin assay relative to control; assay type: cell-based; conditions: filed as antagonist
[10] = biological target: T6, C-C chemokine receptor type 8 (Homo sapiens, UniProt P51685); experiment: Antagonist activity at human CCR8 expressed in CHO-K1 cells at 20 uM by PathHunter beta-arrestin assay relative to control; assay type: cell-based; conditions: filed as antagonist
[11] = biological target: T7, C-C chemokine receptor type 3 (Homo sapiens) (UniProt P51677); experiment: Antagonist activity at human CCR3 expressed in CHO-K1 cells at 20 uM by PathHunter beta-arrestin assay relative to control; assay type: cell-based; conditions: filed as antagonist
T7 sequence (whole entry): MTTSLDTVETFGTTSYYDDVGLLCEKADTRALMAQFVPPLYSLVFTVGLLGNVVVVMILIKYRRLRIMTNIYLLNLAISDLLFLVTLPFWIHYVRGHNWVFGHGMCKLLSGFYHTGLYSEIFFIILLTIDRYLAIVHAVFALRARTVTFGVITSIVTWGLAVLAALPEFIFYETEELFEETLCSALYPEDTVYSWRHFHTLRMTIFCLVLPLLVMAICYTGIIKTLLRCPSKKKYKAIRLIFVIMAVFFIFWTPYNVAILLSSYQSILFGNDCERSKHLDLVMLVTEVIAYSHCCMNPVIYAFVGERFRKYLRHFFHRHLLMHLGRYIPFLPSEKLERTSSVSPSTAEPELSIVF

[12] = biological target: T6, C-C chemokine receptor type 8; experiment: Agonist activity at human CCR8 expressed in CHO-K1 cells at 20 uM by PathHunter beta-arrestin assay relative to control; assay type: cell-based
[13] = biological target: T7, C-C chemokine receptor type 3 (Homo sapiens); experiment: Agonist activity at human CCR3 expressed in CHO-K1 cells at 20 uM by PathHunter beta-arrestin assay relative to control; assay type: cell-based

T3 sequence (P30518 whole entry): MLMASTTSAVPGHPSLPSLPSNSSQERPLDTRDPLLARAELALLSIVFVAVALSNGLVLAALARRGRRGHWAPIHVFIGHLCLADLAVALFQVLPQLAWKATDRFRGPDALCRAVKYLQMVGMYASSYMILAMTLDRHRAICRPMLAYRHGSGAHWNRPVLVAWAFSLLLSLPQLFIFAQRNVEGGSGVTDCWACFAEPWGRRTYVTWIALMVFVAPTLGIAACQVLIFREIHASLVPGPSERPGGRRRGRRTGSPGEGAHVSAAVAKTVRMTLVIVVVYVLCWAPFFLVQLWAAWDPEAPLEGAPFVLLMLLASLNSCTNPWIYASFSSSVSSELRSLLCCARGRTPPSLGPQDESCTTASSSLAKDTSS
T6 sequence (P51685 whole entry): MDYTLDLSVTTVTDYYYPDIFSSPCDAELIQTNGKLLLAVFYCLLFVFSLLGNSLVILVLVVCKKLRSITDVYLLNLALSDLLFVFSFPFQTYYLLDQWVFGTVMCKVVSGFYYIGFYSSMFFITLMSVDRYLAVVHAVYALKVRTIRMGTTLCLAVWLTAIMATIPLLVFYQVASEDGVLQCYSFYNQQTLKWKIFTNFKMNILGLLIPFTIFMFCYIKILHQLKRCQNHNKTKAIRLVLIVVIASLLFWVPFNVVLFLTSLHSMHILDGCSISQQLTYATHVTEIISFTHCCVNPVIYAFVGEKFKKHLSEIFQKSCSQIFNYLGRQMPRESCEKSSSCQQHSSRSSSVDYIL
Chain of C-X-C chemokine receptor type 4 (P61073 whole entry): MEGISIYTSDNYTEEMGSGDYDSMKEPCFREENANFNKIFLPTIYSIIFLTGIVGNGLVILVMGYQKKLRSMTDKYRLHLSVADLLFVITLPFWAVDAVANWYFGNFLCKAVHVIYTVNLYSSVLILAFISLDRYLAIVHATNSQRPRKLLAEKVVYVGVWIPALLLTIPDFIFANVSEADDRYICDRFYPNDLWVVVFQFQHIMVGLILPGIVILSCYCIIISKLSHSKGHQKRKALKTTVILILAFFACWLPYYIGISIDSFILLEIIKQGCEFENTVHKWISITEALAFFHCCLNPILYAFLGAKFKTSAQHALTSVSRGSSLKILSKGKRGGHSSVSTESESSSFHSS

| Structure (SMILES) | Activity [1] | inhibition [2] [%] | Activity (Vasopressin V2 receptor [3]) | Activity [4] | Activity (U2OS [5]) | Activity [6] | inhibition (Vasopressin V2 receptor [7]) [%] | Activity [8] | inhibition (U2OS [9]) [%] | inhibition [10] [%] | inhibition [11] [%] | Activity [12] | Activity [13] |
| --- | --- | --- | --- | --- | --- | --- | --- | --- | --- | --- | --- | --- | --- |
| COC(=O)[C@@H]1[C@H]2C[C@@H](c3[nH]c4ccccc4c3CCn3cc(-c4cccc(Cl)c4)nn3)N(C#N)C[C@@H]2CC[C@@H]1O | inactive | 51 | inactive | inactive | inactive | inactive | 7 | inactive | 62 | 90 | 112 | inactive | inactive |
| COC(=O)[C@@H]1[C@H]2C[C@@H]3N(CC[C@@]34C(=O)N(Cc3cccc(OC)c3)c3ccccc34)C[C@@H]2CC[C@@H]1OCc1cccc(OC)c1 | inactive | 56 | inactive | inactive | inactive | inactive | 83 | inactive | 48 | 88 | 89 | inactive | inactive |
